# Test results as given in patent US6613536B1, “Synthetic peptides and pharmaceutical compositions comprising them for the treatment of systemic lupus erythematosus” (Yeda Research and Development Co. Ltd., priority 1995, dated 2003).
# Key:
# SJL/J and BALB/c mice [1] = experiment: Anti-DNA antibodies in sera of immunized mice (ELISA); assay type: in vivo, mouse; details: for anti-DNA antibodies in sera: sera three months after booster; for levels of autoantibodies including anti-DNA and anti-NE antibodies: SJL mice immunized with IIIa, BALB/c mice immunized with Ia
# Description: ELISA was utilized for the detection and quantitation of antibodies in experimental mice, and in humans. Polystyrene microtiter plates were coated with the relevant antigen or antibody, and sera dilutions or supernatants derived from the human or mouse cell cultures were added to the blocked plates. Specific binding was determined following the addition of peroxidase-conjugated antibodies against the appropriate immunoglobulin (Ig) (e.g. goat anti-human or goat anti-mouse peroxidase-conjugated antibodies) and the peroxidase substrate. Optical densities were read at 414 nm using an ELISA reader.
# SJL/J and BALB/c female mice (6-8 week old) were immunized with 20 μg of peptide Ia or IIIa of the invention, or with a control peptide designated p278 (the peptide desinated Pep 278h described in published PCT International Application WO 94/03208) or with mAb 5G12 emulsified in complete Freund's adjuvant (CFA) in the foot pads. Three weeks later the mice received a booster injection with the same amount of peptide or mAb, in PBS. Thereafter, blood was drawn every two weeks. A fifth group included non-immunized mice.
# ELISA was utilized to test the presence of the anti-DNA antibodies in the sera of the mice, as follows : Plates (Nunc) were coated for 90 min with 10 μg/ml of methylated BSA. Thereafter the plates were washed (all the washes were 3 times with PBS/0.05% Tween 20 (Sigma)) and incubated for an additional 90 min with 10 μg/ml of single-stranded DNA (calf thymus DNA (Sigma) that was heated for 15 min at 90° C. and fast-cooled). The plates were washed and blocked overnight with 1% ovalbumin in PBS (Sigma). Thereafter, the plates were washed and incubated with the sera of the mice diluted in the blocking reagent, followed by wash and incubation with 1:500 dilution of goat anti-mouse IgG (Fc receptor specific) polyclonal antibody conjugated to peroxidase. The plates were then washed and developed using ABTS substrate (Sigma), and the color was read using an ELISA reader at 414 nm. Results are expressed as mean OD of each mouse group (5 mice per group).
# SJL/J and BALB/c mice [2] = experiment: Anti-RNP, Sm, Ro and La antibodies in sera of immunized mice (ELISA); assay type: in vivo, mouse; details: for anti-RNP antibodies in sera / anti-Sm, anti-La and anti-Ro antibodies in sera: BALB/c mice; for anti-RNP, anti-Sm and anti-La antibodies in sera: sera diluted 1:10, compared to normal mice or p278
# Description: The same sera of the mice as described in Examples 2 and 3 were used for detection of anti-RNP, Sm, Ro and La antibodies.
# Plates were purchased as pre-coated plates and were blocked with 1% ovalbumin in PBS for 2 hr. Thereafter the plates were washed as in Example 2 above, incubated in duplicates with 1:10 diluted sera, washed again and ELISA was carried out as described in Example 2 above.
# [3] = system: lymph node cells (LNC) of BALB/c and SJL mice; experiment: In vivo inhibition of LNC proliferation responses to the CDR-based peptides; design: species or system mouse; details: LNC of treated mice; not shown
# Description: BALB/c (FIG. 5a) and SJL (FIG. 5b) mice were immunized with peptides Ia and IIIa (20 μg/mouse in CFA i.d. in the hind footpads), respectively. The mice were also injected i.v. with 200 μg of the above peptides in PBS either 3 days prior to immunization (open squares), at the immunization day (open circles) or at both dates (open triangles). Ten days later the mice were sacrificed and their lymph nodes were removed and tested for proliferation in the presence of different concentrations of the immunizing peptide. Control groups were of LNC taken from mice that were immunized but not treated (filled squares), or treated with control peptide, p307 (half filled squares). The culture mixtures were incubated for 96 hours in enriched RPMI medium containing 1% normal mouse serum prior to addition of ^3H-thymidine. Sixteen hours later cells were harvested and radioactivity was counted. Results are expressed as mean CPM of triplicates.
# [4] = system: lymph node cells (LNC) of BALB/c and SJL mice; experiment: In vivo inhibition of LNC proliferation to human mAb 16/6 Id; details: 200 μg/mouse i.v., vs not treated or p307
# Description: BALB/c (FIG. 7a) and SJL (FIG. 7b) mice were immunized with human mAb 16/6 Id (1 μg/mouse in CFA i.d. in the hind footpads) and were injected (200 μg/mouse i.v. in PBS) with either peptide Ia or IIIa, respectively. Proliferation responses to mAb 16/6 Id were measured in LNC taken from immunized but not-treated mice (filled squares), from mice treated concomitantly with immunization with the control peptide p307 (half filled squares) or from mice treated with the appropriate CDR-based peptide Ia or IIIa (open squares). Proliferation responses were also shown to the immunodominant CDR-based peptide Ia or IIIa of LNC taken from 16/6 Id immunized non-treated mice (filled circles) or from mice treated with the appropriate CDR-based peptide Ia or IIIa (open circles). Results are expressed as mean CPM of triplicates.
# [5] = system: antibodies in sera of SLE patients and healthy controls; experiment: Antibodies in human sera binding coated peptides or mAb 5G12 (ELISA); details: 32 SLE patients in comparison to healthy controls; plates coated 10 μg/ml
# Description: Human SLE patients (32 patients) were bled and their sera were tested by ELISA for their ability to bind the peptides Ia, IIa and IIIa, a control peptide p195-212 (a myasthogenic peptide described in PCT publication No. WO 94/00148) or mAb 5G12.
# Detection of the antibodies was conducted on plates that were coated with 10 μg/ml of peptides Ia, IIa, IIIa or p195-212 or mAb 5G12, in PBS for 2 hr, washed and blocked with 1% ovalbumin in PBS for an additional 2 hr. ELISA was continued as described after blockage in Example 2 above, using goat anti-human IgG polyclonal antibody conjugated to peroxidase.
# [6] = system: peripheral blood lymphocytes (PBL); experiment: IL-2 production by PBL of SLE patients and healthy controls; assay type: cell-based, human; details: sample at 24 hr
# Description: PBL from human SLE patients and of the appropriate control donors (2×10^5/well) were cultured in microtiter plates in enriched medium containing 10% pooled AB sera in the presence of the human or mouse monoclonal 16/6 Id antibody, in the presence of peptides of the invention or in the presence of phytohemagglutinin (PHA). The rate of proliferation was evaluated by the incorporation of ^3[H]-thymidine in the cell culture. Non-relevant peptides were used as specificity controls. Antigen and mitogen-stimulated cytokine production was quantitated in the supernatants of the above cultures using either the cytokine-dependent lines or the appropriate pairs of antibodies in ELISA assays. Inhibition of the proliferative responses was performed in vitro by adding increasing doses of the tested peptide analogs into the proliferative culture mixtures.
# PBL were isolated from blood of SLE patients or healthy controls using ficol gradient, and were incubated as in Example 13. A sample of 50 μl was removed 24 hr after the assay was started, and incubated in the presence of IL-2 sensitive cells (CTLD) for 24 hr, after which ^3H-thymidine was added for 16 hr, and the plates were harvested and counted on a beta counter.
# [7] = BALB/c mice immunized with 20 μg in CFA plus booster
# [8] = SJL/J mice immunized with 20 μg in CFA plus booster
Substance,anti-DNA antibodies in sera (SJL/J and BALB/c mice [1]; [7]),levels of autoantibodies including anti-DNA and anti-NE antibodies (SJL/J and BALB/c mice [1]),anti-DNA antibodies in sera (SJL/J and BALB/c mice [1]; [8]),anti-RNP antibodies in sera (SJL/J and BALB/c mice [2]; sera diluted 1:10),"anti-Sm, anti-La and anti-Ro antibodies in sera (SJL/J and BALB/c mice [2]; sera diluted 1:10)","anti-RNP, anti-Sm and anti-La antibodies in sera (SJL/J and BALB/c mice [2]; SJL/J mice)",proliferative responses of the LNC to Con A (specificity) [3],proliferative responses to mAb 16/6 Id of LNC ([4]; BALB/c mice immunized with human mAb 16/6 Id),levels of serum antibodies that bind the coated peptide or mAb [5],"IL-2 production by PBL, actual number of responders ([6]; SLE patients)","IL-2 production by PBL, percentage of responders ([6]; SLE patients)","IL-2 production by PBL, actual number of responders ([6]; healthy controls)","IL-2 production by PBL, percentage of responders ([6]; healthy controls)","anti-Ro autoantibodies in sera (SJL/J and BALB/c mice [2]; SJL/J mice, sera diluted 1:10)",proliferative responses to mAb 16/6 Id of LNC ([4]; SJL mice immunized with human mAb 16/6 Id)
TGYYMQWVKQSPEKSLEWIG [peptide Ia],show presence of anti-DNA antibodies,elevated levels of autoantibodies,Low levels of anti-DNA antibodies,very high levels of anti-RNP antibodies,produced detectable antibodies,"High levels of anti-RNP, anti-Sm and anti-La antibodies",not inhibited,inhibited,significantly higher levels of antibodies,5/32,16%,14/25,56%,–,–
"YYYCARFLWEPYAMDYWGQGS (YYCARFLWEPYAMDYWGQGS) [peptide IIIa, based on the CDR3 region of the VH chain of mAb 5G12]",did not show presence of anti-DNA antibodies,elevated levels of autoantibodies,high level of anti-DNA antibodies,very high levels of anti-RNP antibodies,"very low levels of anti-Sm, anti-La and anti-Ro antibodies","High levels of anti-RNP, anti-Sm and anti-La antibodies",not inhibited,–,significantly higher levels of antibodies,5/32,16%,16/25,64%,extremely high levels of anti-Ro autoantibodies,inhibited
